ChEMBL document CHEMBL1255302, “Genetic structures at the origin of acquisition of the beta-lactamase bla KPC gene” (2008)
Values after ≈ are worked out from the molar mass of the structure shown.

Legend:
Format in all cases: functional
[1] = system: Pseudomonas aeruginosa; test: Antibacterial activity against Pseudomonas aeruginosa 2404 plasmid by Etest method in presence of beta-lactamase inhibitor clavulanic acid
[2] = system: Escherichia coli; test: Antibacterial activity against Escherichia coli harboring pCOL plasmid expressing blaKPC gene by Etest method in presence of beta-lactamase inhibitor clavulanic acid
[3] = system: Escherichia coli; test: Antibacterial activity against Escherichia coli harboring pNYC plasmid expressing blaKPC gene by Etest method
[4] = system: Klebsiella pneumoniae; test: Antibacterial activity against Klebsiella pneumoniae 633 by Etest method
[5] = system: Escherichia coli; test: Antibacterial activity against Escherichia coli harboring pBC2303 expressing blaKPC gene plasmid by Etest method
[6] = system: Klebsiella pneumoniae; test: Antibacterial activity against Klebsiella pneumoniae YC by Etest method in presence of beta-lactamase inhibitor clavulanic acid
[7] = system: Pseudomonas aeruginosa; test: Antibacterial activity against Pseudomonas aeruginosa KG2505 harboring pCOL plasmid by Etest method in presence of beta-lactamase inhibitor clavulanic acid
[8] = system: Pseudomonas aeruginosa; test: Antibacterial activity against Pseudomonas aeruginosa KG2505 by Etest method in presence of beta-lactamase inhibitor clavulanic acid
[9] = system: Escherichia coli; test: Antibacterial activity against Escherichia coli harboring pNGR plasmid expressing blaKPC gene by Etest method
[10] = system: Escherichia coli; test: Antibacterial activity against Escherichia coli harboring pCOL plasmid expressing blaKPC gene by Etest method
[11] = system: Pseudomonas aeruginosa; test: Antibacterial activity against Pseudomonas aeruginosa 2404 plasmid by Etest method
[12] = system: Klebsiella pneumoniae; test: Antibacterial activity against Klebsiella pneumoniae KN2303 by Etest method in presence of beta-lactamase inhibitor clavulanic acid
[13] = system: Escherichia coli; test: Antibacterial activity against Escherichia coli harboring pBC633 plasmid expressing blaKPC gene by Etest method in presence of beta-lactamase inhibitor clavulanic acid
[14] = system: Escherichia coli; test: Antibacterial activity against Escherichia coli harboring pBC2303 expressing blaKPC gene plasmid by Etest method in presence of beta-lactamase inhibitor clavulanic acid
[15] = system: Klebsiella pneumoniae; test: Antibacterial activity against Klebsiella pneumoniae 633 by Etest method in presence of beta-lactamase inhibitor clavulanic acid
[16] = system: Escherichia coli; test: Antibacterial activity against Escherichia coli DH10B expressing blaKPC gene by Etest method
[17] = system: Escherichia coli; test: Antibacterial activity against Escherichia coli harboring pNGR plasmid expressing blaKPC gene by Etest method in presence of beta-lactamase inhibitor clavulanic acid
[18] = system: Klebsiella pneumoniae; test: Antibacterial activity against Klebsiella pneumoniae KN2303 by Etest method
[19] = system: Klebsiella pneumoniae; test: Antibacterial activity against Klebsiella pneumoniae GR by Etest method
[20] = system: Escherichia coli; test: Antibacterial activity against Escherichia coli harboring pBC633 plasmid expressing blaKPC gene by Etest method
[21] = system: Escherichia coli; test: Antibacterial activity against Escherichia coli DH10B expressing blaKPC gene by Etest method in presence of beta-lactamase inhibitor clavulanic acid
[22] = system: Pseudomonas aeruginosa; test: Antibacterial activity against Pseudomonas aeruginosa KG2505 by Etest method
[23] = system: Klebsiella pneumoniae; test: Antibacterial activity against Klebsiella pneumoniae YC by Etest method
[24] = system: Pseudomonas aeruginosa; test: Antibacterial activity against Pseudomonas aeruginosa KG2505 harboring pCOL plasmid by Etest method
[25] = system: Escherichia coli; test: Antibacterial activity against Escherichia coli harboring pRYC plasmid expressing blaKPC gene by Etest method in presence of beta-lactamase inhibitor clavulanic acid
[26] = system: Escherichia coli; test: Antibacterial activity against Escherichia coli harboring pRYC plasmid expressing blaKPC gene by Etest method
[27] = system: Escherichia coli; test: Antibacterial activity against Escherichia coli harboring pNYC plasmid expressing blaKPC gene by Etest method in presence of beta-lactamase inhibitor clavulanic acid
[28] = system: Klebsiella pneumoniae; test: Antibacterial activity against Klebsiella pneumoniae GR by Etest method in presence of beta-lactamase inhibitor clavulanic acid

Structure (SMILES)	MIC [1] [µg/mL]	MIC [2] [µg/mL]	MIC [3] [µg/mL]	MIC [4] [µg/mL]	MIC [5] [µg/mL]	MIC [6] [µg/mL]	MIC [7] [µg/mL]	MIC [8] [µg/mL]	MIC [9] [µg/mL]	MIC [10] [µg/mL]	MIC [11] [µg/mL]	MIC [12] [µg/mL]	MIC [16] [µg/mL]	MIC [18] [µg/mL]	MIC [19] [µg/mL]	MIC [20] [µg/mL]	MIC [22] [µg/mL]	MIC [23] [µg/mL]	MIC [24] [µg/mL]	MIC [26] [µg/mL]	further results
C[C@@H](O)[C@H]1C(=O)N2C(C(=O)O)=C(S[C@@H]3CN[C@H](C(=O)Nc4cccc(C(=O)O)c4)C3)[C@H](C)[C@H]12	> 32	0.002	0.5 (≈ 1.05 µM)	> 32	0.25 (≈ 0.526 µM)	2	2	0.03	0.38 (≈ 0.799 µM)	0.004 (≈ 0.00841 µM)	> 32	> 32	0.25 (≈ 0.526 µM)	> 32	12 (≈ 25.2 µM)	2 (≈ 4.21 µM)	0.25 (≈ 0.526 µM)	24 (≈ 50.5 µM)	> 32	4 (≈ 8.41 µM)	MIC [13]: 0.19 µg/mL; MIC [14]: 0.02 µg/mL; MIC [15]: 8 µg/mL; MIC [17]: 0.01 µg/mL; MIC [21]: 0.05 µg/mL; MIC [25]: 1.5 µg/mL; MIC [27]: 0.05 µg/mL; MIC [28]: 6 µg/mL
CO/N=C(\C(=O)N[C@@H]1C(=O)N2C(C(=O)[O-])=C(C[N+]3(C)CCCC3)CS[C@H]12)c1csc(N)n1			1 (≈ 2.08 µM)	> 32	3 (≈ 6.24 µM)				1.5 (≈ 3.12 µM)	0.02 (≈ 0.0416 µM)	> 32		1 (≈ 2.08 µM)	> 32	> 32	4 (≈ 8.32 µM)	0.5 (≈ 1.04 µM)		> 32	> 32	
CC1(C)S[C@@H]2[C@H](NC(=O)[C@H](N)c3ccc(O)cc3)C(=O)N2[C@H]1C(=O)O [AMOXICILLIN]	> 256	2	> 256	> 256	> 256	32	> 256	0.25	> 256	2 (≈ 5.47 µM)	> 256	> 256	> 256	> 256	> 256	> 256	0.25 (≈ 0.684 µM)	> 256	> 256	> 256	MIC [13]: 32 µg/mL; MIC [14]: 24 µg/mL; MIC [15]: 32 µg/mL; MIC [17]: 24 µg/mL; MIC [21]: 24 µg/mL; MIC [25]: 64 µg/mL; MIC [27]: 32 µg/mL; MIC [28]: 48 µg/mL
C[C@H]1[C@H](NC(=O)/C(=N\OC(C)(C)C(=O)O)c2csc(N)n2)C(=O)N1S(=O)(=O)O [AZTREONAM]			16 (≈ 36.7 µM)		192 (≈ 441 µM)				16 (≈ 36.7 µM)				24 (≈ 55.1 µM)								
CO/N=C(\C(=O)N[C@@H]1C(=O)N2C(C(=O)O)=C(COC(C)=O)CS[C@H]12)c1csc(N)n1 [CEFOTAXIME]	> 32	0.01	4 (≈ 8.78 µM)	> 32	16 (≈ 35.1 µM)	16	> 32	0.19	4 (≈ 8.78 µM)	0.05 (≈ 0.11 µM)	> 32	> 32	3 (≈ 6.59 µM)	> 32	> 32	32 (≈ 70.3 µM)	0.25 (≈ 0.549 µM)	> 32	> 32	> 32	MIC [13]: 3 µg/mL; MIC [14]: 0.38 µg/mL; MIC [15]: > 32 µg/mL; MIC [17]: 0.38 µg/mL; MIC [21]: 0.25 µg/mL; MIC [25]: > 32 µg/mL; MIC [27]: 2 µg/mL; MIC [28]: 32 µg/mL
CO[C@@]1(NC(=O)Cc2cccs2)C(=O)N2C(C(=O)O)=C(COC(N)=O)CS[C@@H]21 [CEFOXITIN]			2 (≈ 4.68 µM)	> 32	8 (≈ 18.7 µM)				4 (≈ 9.36 µM)	2 (≈ 4.68 µM)	> 64		2 (≈ 4.68 µM)	> 32	> 32	> 32	0.25 (≈ 0.585 µM)	> 32	> 32	> 32	
CC(C)(O/N=C(\C(=O)N[C@@H]1C(=O)N2C(C(=O)[O-])=C(C[n+]3ccccc3)CS[C@H]12)c1csc(N)n1)C(=O)O [CEFTAZIDIME]			4 (≈ 7.32 µM)	> 256	256 (≈ 468 µM)				4 (≈ 7.32 µM)	0.19 (≈ 0.348 µM)	> 256		8 (≈ 14.6 µM)	> 256	> 256	32 (≈ 58.5 µM)	1 (≈ 1.83 µM)	64 (≈ 117 µM)	> 256	> 256	
CC(=O)OCC1=C(C(=O)O)N2C(=O)[C@@H](NC(=O)Cc3cccs3)[C@H]2SC1 [CEPHALOTHIN]			> 256	> 256	> 256				> 256	2 (≈ 5.04 µM)	> 256		256 (≈ 646 µM)	> 256	> 256	> 256	2 (≈ 5.04 µM)	> 256	> 256	> 256	
C[C@@H](O)[C@H]1C(=O)N2C(C(=O)O)=C(SCCNC=N)C[C@H]12 [IMIPENEM ANHYDROUS]	> 32	0.1	8 (≈ 26.7 µM)	> 32	1 (≈ 3.34 µM)	2	2	0.19	1.5 (≈ 5.01 µM)	0.19 (≈ 0.635 µM)	> 32	> 32	1.5 (≈ 5.01 µM)	> 32	12 (≈ 40.1 µM)	6 (≈ 20 µM)	0.19 (≈ 0.635 µM)	4 (≈ 13.4 µM)	> 32	12 (≈ 40.1 µM)	MIC [13]: 0.75 µg/mL; MIC [15]: 0.75 µg/mL; MIC [21]: 0.38 µg/mL; MIC [25]: 3 µg/mL; MIC [27]: 2 µg/mL; MIC [28]: 0.75 µg/mL
C[C@@H](O)[C@H]1C(=O)N2C(C(=O)O)=C(S[C@@H]3CN[C@H](C(=O)N(C)C)C3)[C@H](C)[C@H]12 [MEROPENEM]	> 32	0.002	2 (≈ 5.22 µM)	4 (≈ 10.4 µM)	0.38 (≈ 0.991 µM)	1	3	0.01	0.38 (≈ 0.991 µM)	0.01 (≈ 0.0261 µM)	> 32	> 32	0.38 (≈ 0.991 µM)	> 32	6 (≈ 15.6 µM)	2 (≈ 5.22 µM)	0.05 (≈ 0.13 µM)	2 (≈ 5.22 µM)	> 32	3 (≈ 7.82 µM)	MIC [13]: 0.38 µg/mL; MIC [14]: 0.12 µg/mL; MIC [15]: 2 µg/mL; MIC [17]: 0.01 µg/mL; MIC [21]: 0.1 µg/mL; MIC [25]: 2 µg/mL; MIC [27]: 0.25 µg/mL; MIC [28]: 3 µg/mL
CCN1CCN(C(=O)N[C@@H](C(=O)N[C@@H]2C(=O)N3[C@@H]2SC(C)(C)[C@@H]3C(=O)O)c2ccccc2)C(=O)C1=O [PIPERACILLIN]			> 256	> 256	> 256				128 (≈ 247 µM)	1.5 (≈ 2.9 µM)	> 256		> 256	> 256	> 256	> 256	0.38 (≈ 0.734 µM)	> 256	> 256	> 256	
CC1(C)S[C@@H]2[C@H](NC(=O)[C@H](C(=O)O)c3ccsc3)C(=O)N2[C@H]1C(=O)O [TICARCILLIN]	> 256	1.5	> 256	> 256	> 256	> 256	> 256	0.25	> 256	2 (≈ 5.2 µM)	> 256	> 256	> 256	> 256	> 256	> 256	0.38 (≈ 0.988 µM)	> 256	> 256	> 256	MIC [13]: > 256 µg/mL; MIC [14]: > 256 µg/mL; MIC [15]: > 256 µg/mL; MIC [17]: > 256 µg/mL; MIC [21]: > 256 µg/mL; MIC [25]: > 256 µg/mL; MIC [27]: > 256 µg/mL; MIC [28]: > 256 µg/mL
